# Biological target: hTREM2 (Homo sapiens, UniProt Q9NZC2)
# Assay: Phospho-Syk AlphaScreen/AlphaLISA assay in TREM2 and DAP12 overexpressing HEK293 cells (Example A1)
# Format: cell-based
# Design: expressed in transfected cells
# Settings: HEK293 cells; for EC50: read-out: hTREM2 EC50
# Protocol: Pharmacological measurements of TREM2 signaling through DAP12 were made with TREM2 and DAP12 overexpressing HEK293 cells stable cell lines that had been single-cell cloned (“TREM2/DAP12-HEK”). The readout of the TREM2 signaling utilized Perkin Elmer AlphaScreen/AlphaLISA technology monitoring the phosphorylation levels of the Syk kinase. TREM2/DAP12-HEK cell lines were cultured in DMEM-F12 (Corning 10-092-CM) supplemented with 1× Penicillin/Streptomycin (Corning 30-002-CI), 1× GlutaMAX (Gibco 35050-061), and 10% Fetal Bovine Serum (Life Technologies 10099) referred to as “HEK Culture Medium”. Suspensions of TREM2/DAP12-HEK cells were prepared in HEK Culture Medium and dispensed into 384-well poly-D-lysine coated microplates (Corning 354661) at a density of 20,000 cells/well using a Multidrop Combi peristaltic microplate dispenser (Thermo), 25 uL volume of cell suspension/well. Plates containing cells were then incubated for 20 hours in a humidified cell culture incubator at 37° C. with 5% CO2 (Thermo). […] Assay Buffer contained diluted test articles (in 1% final DMSO concentration for compounds) or 100 nM anti-human/mouse TREM2 antibody (R&D Systems MAB17291) as a positive control, 100 nM or rat IgG2B isotype Ab as a negative control (R&D Systems MAB0061). Incubated the plates with test articles and controls for 45 minutes at room temperature and then aspirated/removed the medium from each well of the plates. Used a Multidrop Combi peristaltic liquid handler (Thermo) to dispense 15 uL/well of “Cell Lysis Immunoassay Buffer”. The Cell Lysis Immunoassay Buffer contained M-PER Mammalian Protein Extraction Reagent (Pierce/ThermoFisher 78505), 1× Halt Phosphatase Inhibitor Cocktail (ThermoFisher #78427), 0.1875 nM anti-phospho-Syk ([…]/526) ([…]) rabbit mAb (Cell Signaling Technologies catalog #2710), and 1.5 nM biotinylated Mouse anti-human Syk (4D10) antibody (BD Biosciences, catalog #624008). Incubated plates for 1 hour at room temperature after the addition of the Cell Lysis Immunoassay Buffer. Used the Multidrop Combi liquid handler to dispense 15 μL of AlphaScreen Acceptor Bead Solution containing 7.5 μg/mL anti-rabbit IgG (Fc specific) AlphaLISA Acceptor Beads (Perkin Elmer A[…]) in 1× Immunoassay buffer (Perkin Elmer A[…]) to each well of the microplates. Incubated plates for 2 hours at room temperature. Following the incubation with the AlphaLISA Acceptor Bead Solution, used a Multidrop Combi liquid handler (Thermo) to dispense 15 μL of AlphaScreen Donor Bead Solution containing 30 μg/mL of AlphaScreen Streptavidin Donor beads (Perkin Elmer 6760002B) in 1× Immunoassay buffer (Perkin Elmer A[…]) to each well of the microplates. Incubated microplates for 2 hours protected from light sources as the AlphaScreen reagents are light sensitive. Once the final incubation was completed, acquired AlphaScreen signal from the donor and acceptor beads using an Envision high throughput multi-modal microplate reader (Perkin Elmer) calibrated to the plate type with the AlphaScreen mirror and filter-set in 384-well mode, 680 nanometer excitation wavelength. The total measurement time per well was 550 milliseconds with a 180 millisecond excitation time. After reading the AlphaScreen signal for each well of the microplates, on a plate-by-plate basis, each raw test article well value (x) was normalized to a Percent of Control (“POC”) value using the following formula: […] Each plate contained 12 of each type of control wells that were used to generate the mean values. For concentration response curve analysis with test articles tested at various concentrations, the % of activation values were analyzed with 4 Parameter Logistic or Sigmoidal Dose-Response Models using GeneData Screener (GeneData, AG) or GraphPad Prism 7 (Graphpad Software, Inc.). […] This assay may be used to test any of the compounds described herein to assess and characterize a compound's ability to act as an agonist of TREM2.
# Sequence of hTREM2 (Q9NZC2 19-230): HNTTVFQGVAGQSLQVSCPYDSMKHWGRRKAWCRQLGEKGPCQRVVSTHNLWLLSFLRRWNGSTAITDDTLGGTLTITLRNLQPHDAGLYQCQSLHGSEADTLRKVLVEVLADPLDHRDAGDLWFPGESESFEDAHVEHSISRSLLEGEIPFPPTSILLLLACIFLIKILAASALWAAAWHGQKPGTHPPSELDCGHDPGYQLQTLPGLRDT
# Sequence of hTREM2 (O43914 22-113 partner): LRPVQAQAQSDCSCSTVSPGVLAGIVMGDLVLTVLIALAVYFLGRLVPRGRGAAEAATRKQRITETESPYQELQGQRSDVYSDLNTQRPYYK
Emax,EC50 [nM],SMILES
+++ (Emax>200 and ≤300),500 to 3000,"Cc1nc([C@@H]2CN(c3cc4nc(C)n(C)c(=O)c4c(-c4ccc(Cl)cc4F)n3)CCO2)no1 (single isomer, unassigned) [Example 57]"
+++ (Emax>200 and ≤300),500 to 3000,"Cc1nnc([C@@H]2CN(c3cc4nc(C)n(C)c(=O)c4c(-c4ccc(Cl)cc4F)n3)CCO2)o1 (single isomer, unassigned) [Example 58]"
+++ (Emax>200 and ≤300),50 to 500,"Cc1nnc([C@H]2CN(c3cc4nc(C)n(C)c(=O)c4c(-c4ccc(Cl)cc4F)n3)CCO2)o1 (single isomer, unassigned) [Example 59]"
++++ (Emax>300),50 to 500,"Cc1ncc([C@@H]2CN(c3cc4nc(C)n(C)c(=O)c4c(-c4ccc(Cl)cc4F)n3)CCO2)cn1 (single isomer, unassigned) [Example 64]"
++ (Emax>100 and ≤200),3000 to 100000,"Cc1ncc([C@H]2CN(c3cc4nc(C)n(C)c(=O)c4c(-c4ccc(Cl)cc4F)n3)CCO2)cn1 (single isomer, unassigned) [Example 65]"
+++ (Emax>200 and ≤300),50 to 500,"Cc1c([C@@H]2CN(c3cc4nc(C)n(C)c(=O)c4c(-c4ccc(Cl)cc4F)n3)CCO2)cnn1C (single isomer, unassigned) [Example 66]"
++ (Emax>100 and ≤200),3000 to 100000,"Cc1c([C@H]2CN(c3cc4nc(C)n(C)c(=O)c4c(-c4ccc(Cl)cc4F)n3)CCO2)cnn1C (single isomer, unassigned) [Example 67]"
++++ (Emax>300),50 to 500,"Cc1nc2cc(N3C[C@H](C)O[C@@H](c4ccsc4)C3)nc(-c3ccc(Cl)cc3F)c2c(=O)n1C (single isomer, unassigned) [Example 71]"
++++ (Emax>300),500 to 3000,"Cc1nc2cc(N3C[C@@H](c4ccsc4)O[C@@H](C)C3)nc(-c3ccc(Cl)cc3F)c2c(=O)n1C (single isomer, unassigned) [Example 72]"
+++ (Emax>200 and ≤300),3000 to 100000,"Cc1nc2cc(N3C[C@@H](C)O[C@@H](c4ccsc4)C3)nc(-c3ccc(Cl)cc3F)c2c(=O)n1C (single isomer, unassigned) [Example 73]"
+ (Emax>45 and ≤100),500 to 3000,"Cc1nc2cc(N3C[C@@H](C)O[C@H](c4ccsc4)C3)nc(-c3ccc(Cl)cc3F)c2c(=O)n1C (single isomer, unassigned) [Example 74]"
++++ (Emax>300),50 to 500,"Cc1cc([C@@H]2CN(c3cc4nc(C)n(C)c(=O)c4c(-c4ccc(Cl)cc4F)n3)CCO2)cc(C)n1 (single isomer, unassigned) [Example 76]"
++++ (Emax>300),< 50,"Cc1cc([C@H]2CN(c3cc4nc(C)n(C)c(=O)c4c(-c4ccc(Cl)cc4F)n3)CCO2)cc(C)n1 (single isomer, unassigned) [Example 77]"
++++ (Emax>300),50 to 500,"COc1ccc([C@H]2CN(c3cc4nc(C)n(C)c(=O)c4c(-c4ccc(Cl)cc4F)n3)CCO2)cc1 (single isomer, unassigned) [Example 78]"
+++ (Emax>200 and ≤300),500 to 3000,"COc1ccc([C@@H]2CN(c3cc4nc(C)n(C)c(=O)c4c(-c4ccc(Cl)cc4F)n3)CCO2)cc1 (single isomer, unassigned) [Example 79]"
++++ (Emax>300),50 to 500,"COc1cccc([C@H]2CN(c3cc4nc(C)n(C)c(=O)c4c(-c4ccc(Cl)cc4F)n3)CCO2)c1 (single isomer, unassigned) [Example 80]"

Emax,EC50 [nM],SMILES
+++ (Emax>200 and ≤300),3000 to 100000,"COc1cccc([C@@H]2CN(c3cc4nc(C)n(C)c(=O)c4c(-c4ccc(Cl)cc4F)n3)CCO2)c1 (single isomer, unassigned) [Example 81]"
++++ (Emax>300),< 50,"COc1cc([C@H]2CN(c3cc4nc(C)n(C)c(=O)c4c(-c4ccc(Cl)cc4F)n3)CCO2)ccn1 (single isomer, unassigned) [Example 82]"
++++ (Emax>300),50 to 500,"COc1cc([C@@H]2CN(c3cc4nc(C)n(C)c(=O)c4c(-c4ccc(Cl)cc4F)n3)CCO2)ccn1 (single isomer, unassigned) [Example 83]"
++++ (Emax>300),500 to 3000,"Cc1nc2cc(N3CCO[C@@H](c4noc(C5CC5)n4)C3)nc(-c3ccc(Cl)cc3F)c2c(=O)n1C (single isomer, unassigned) [Example 84]"
++++ (Emax>300),3000 to 100000,"Cc1nc2cc(N3CCO[C@H](c4noc(C5CC5)n4)C3)nc(-c3ccc(Cl)cc3F)c2c(=O)n1C (single isomer, unassigned) [Example 85]"
++++ (Emax>300),500 to 3000,"Cc1nc2cc(N3CCO[C@H](c4ccc(Cl)cc4)C3)nc(-c3ccc(Cl)cc3F)c2c(=O)n1C (single isomer, unassigned) [Example 86]"
++++ (Emax>300),500 to 3000,"Cc1nc2cc(N3CCO[C@@H](c4ccc(Cl)cc4)C3)nc(-c3ccc(Cl)cc3F)c2c(=O)n1C (single isomer, unassigned) [Example 87]"
+++ (Emax>200 and ≤300),500 to 3000,"Cc1nc2cc(N3CCO[C@H](c4ccnc(Cl)c4)C3)nc(-c3ccc(Cl)cc3F)c2c(=O)n1C (single isomer, unassigned) [Example 88]"
++++ (Emax>300),50 to 500,"Cc1nc2cc(N3CCO[C@@H](c4ccnc(Cl)c4)C3)nc(-c3ccc(Cl)cc3F)c2c(=O)n1C (single isomer, unassigned) [Example 89]"
++ (Emax>100 and ≤200),500 to 3000,"Cc1nc2cc(N3CCO[C@@H](c4cccc(C(F)(F)F)c4)C3)nc(-c3ccc(Cl)cc3F)c2c(=O)n1C (single isomer, unassigned) [Example 91]"
++++ (Emax>300),50 to 500,"Cc1nc2cc(N3CCO[C@H](c4cccc(C(F)(F)F)c4)C3)nc(-c3ccc(Cl)cc3F)c2c(=O)n1C (single isomer, unassigned) [Example 92]"
++++ (Emax>300),50 to 500,"Cc1nc2cc(N3CCO[C@H](c4ccnc(OCC(F)(F)F)c4)C3)nc(-c3ccc(Cl)cc3F)c2c(=O)n1C (single isomer, unassigned) [Example 95]"
++++ (Emax>300),500 to 3000,"Cc1nc2cc(N3CCO[C@@H](c4ccnc(OCC(F)(F)F)c4)C3)nc(-c3ccc(Cl)cc3F)c2c(=O)n1C (single isomer, unassigned) [Example 96]"
++++ (Emax>300),500 to 3000,"Cc1nc2cc(N3CCO[C@H](c4cccc(OC(F)(F)F)c4)C3)nc(-c3ccc(Cl)cc3F)c2c(=O)n1C (single isomer, unassigned) [Example 97]"
+++ (Emax>200 and ≤300),3000 to 100000,"Cc1nc2cc(N3CCO[C@@H](c4cccc(OC(F)(F)F)c4)C3)nc(-c3ccc(Cl)cc3F)c2c(=O)n1C (single isomer, unassigned) [Example 98]"
++++ (Emax>300),50 to 500,"Cc1nc2cc(N3CCC[C@@H](c4cnn(C)c4)C3)nc(-c3ccc(Cl)cc3F)c2c(=O)n1C (single isomer, unassigned) [Example 99]"

# From patent US20250388574A1, “HETEROCYCLIC COMPOUNDS AS TRIGGERING RECEPTOR EXPRESSED ON MYELOID CELLS 2 AGONISTS AND METHODS OF USE” (AMGEN INC., priority 2020, published 2025)
